Values joined by “and” are separate entries in the source; they are usually repeats but may differ in a detail not shown here. Equal values may be shown once.
Conditions: 343.15 K, Liquid, Vibrating tube method

CCCCCCC(=O)OCC(COC(=O)CCCCCC)(COC(=O)CCCCCC)COC(=O)CCCCCC [pentaerythritol tetraheptanoate]
Conditions	mass density
13341 kPa	950.4 kg/m3
13372 kPa	950.4 kg/m3
13408 kPa	950.3 kg/m3
13431 kPa	950.4 kg/m3
13453 kPa	950.5 kg/m3
13478 kPa	950.4 kg/m3
13499 kPa	950.4 kg/m3
13521 kPa	950.4 kg/m3
13546 kPa	950.5 kg/m3
13567 kPa	950.5 kg/m3
13589 kPa	950.5 kg/m3
13615 kPa	950.5 kg/m3
13637 kPa	950.5 kg/m3
13658 kPa	950.6 kg/m3
13661 kPa	950.5 kg/m3
13675 kPa	950.6 kg/m3
13680 kPa	950.6 kg/m3
13707 kPa	950.6 kg/m3
13729 kPa	950.6 kg/m3
13751 kPa	950.7 kg/m3
13779 kPa	950.6 kg/m3
13801 kPa	950.7 kg/m3
13824 kPa	950.7 kg/m3
13831 kPa	950.7 kg/m3
13845 kPa	950.8 kg/m3
13850 kPa	950.6 kg/m3
13858 kPa	950.8 kg/m3
13872 kPa	950.8 kg/m3
13895 kPa	950.8 kg/m3
13922 kPa	950.8 kg/m3
13944 kPa	950.7 kg/m3
13968 kPa	950.8 kg/m3
13995 kPa	950.8 kg/m3
14018 kPa	950.9 kg/m3
14041 kPa	950.8 kg/m3
14069 kPa	950.8 kg/m3
14093 kPa	950.9 kg/m3
14116 kPa	950.9 kg/m3
14140 kPa	950.9 kg/m3
14168 kPa	950.9 kg/m3
14191 kPa	950.9 kg/m3
14215 kPa	951 kg/m3
14244 kPa	951 kg/m3
14267 kPa	950.8 kg/m3
14296 kPa	951 kg/m3
14320 kPa	951.1 kg/m3
14344 kPa	951.1 kg/m3
14368 kPa	951 kg/m3
14397 kPa	951.1 kg/m3
14398 kPa	951.2 kg/m3
14410 kPa	951.1 kg/m3
14423 kPa	951 kg/m3
14427 kPa	951.1 kg/m3
14440 kPa	951.1 kg/m3
14447 kPa	951.2 kg/m3
14454 kPa	951 kg/m3
14468 kPa	951.1 kg/m3
14477 kPa	951.2 kg/m3
14482 kPa	951.2 kg/m3
14495 kPa	951 kg/m3
14502 kPa	951.1 kg/m3
14512 kPa	951.2 kg/m3
14526 kPa	951.1 kg/m3
14556 kPa	951 kg/m3
14581 kPa	951.2 kg/m3
14606 kPa	951.1 kg/m3
14632 kPa	951.3 kg/m3
14662 kPa	951.1 kg/m3
14688 kPa	951.2 kg/m3
14714 kPa	951.3 kg/m3
14744 kPa	951.3 kg/m3
14771 kPa	951.3 kg/m3
14797 kPa	951.4 kg/m3
14823 kPa	951.4 kg/m3
14855 kPa	951.2 kg/m3
14880 kPa	951.4 kg/m3
14907 kPa	951.3 kg/m3
14939 kPa	951.4 kg/m3
14965 kPa	951.4 kg/m3
14992 kPa	951.5 kg/m3
15024 kPa	951.5 kg/m3
15051 kPa	951.6 kg/m3
15078 kPa	951.7 kg/m3
15112 kPa	951.6 kg/m3
15135 kPa	951.6 kg/m3
15168 kPa	951.5 kg/m3
15196 kPa	951.6 kg/m3
15230 kPa	951.7 kg/m3
15257 kPa	951.6 kg/m3
15284 kPa	951.8 kg/m3
15310 kPa	951.7 kg/m3
15337 kPa	951.7 kg/m3
15354 kPa	951.7 kg/m3
15378 kPa	951.7 kg/m3
15402 kPa	951.8 kg/m3
15423 kPa	951.8 kg/m3
15449 kPa	951.7 kg/m3
15466 kPa	951.8 kg/m3
15491 kPa	951.8 kg/m3
15511 kPa	951.8 kg/m3
15531 kPa	951.9 kg/m3
15556 kPa	951.9 kg/m3
15577 kPa	952 kg/m3
15598 kPa	951.9 kg/m3
15623 kPa	952.1 kg/m3
15643 kPa	951.9 kg/m3
15664 kPa	951.9 kg/m3
15689 kPa	951.9 kg/m3
15710 kPa	951.9 kg/m3
15732 kPa	951.9 kg/m3
15753 kPa	952.1 kg/m3
15778 kPa	952.1 kg/m3
15800 kPa	952 kg/m3
15817 kPa	952.1 kg/m3
15847 kPa	952.1 kg/m3
15868 kPa	952.2 kg/m3
15890 kPa	952.1 kg/m3
15916 kPa	952.2 kg/m3
15938 kPa	952.1 kg/m3
15964 kPa	952.1 kg/m3
15985 kPa	952.1 kg/m3
16008 kPa	952.2 kg/m3
16034 kPa	952.2 kg/m3
16056 kPa	952.2 kg/m3
16079 kPa	952.2 kg/m3
16101 kPa	952.2 kg/m3
16128 kPa	952.2 kg/m3
16151 kPa	952.3 kg/m3
16174 kPa	952.3 kg/m3
16200 kPa	952.4 kg/m3
16223 kPa	952.3 kg/m3
16246 kPa	952.4 kg/m3
16269 kPa	952.4 kg/m3
16297 kPa	952.4 kg/m3
16320 kPa	952.5 kg/m3
16344 kPa	952.5 kg/m3
16367 kPa	952.5 kg/m3
16395 kPa	952.6 kg/m3
16418 kPa	952.5 kg/m3
16446 kPa	952.4 kg/m3
16469 kPa	952.5 kg/m3
16493 kPa	952.7 kg/m3
16516 kPa	952.5 kg/m3
16545 kPa	952.7 kg/m3
16569 kPa	952.6 kg/m3
16588 kPa	952.6 kg/m3
16616 kPa	952.6 kg/m3
16640 kPa	952.6 kg/m3
16669 kPa	952.7 kg/m3
16698 kPa	952.5 kg/m3
16723 kPa	952.7 kg/m3
16747 kPa	952.8 kg/m3
16771 kPa	952.8 kg/m3
16800 kPa	952.8 kg/m3
16825 kPa	952.8 kg/m3
16854 kPa	952.8 kg/m3
16879 kPa	952.8 kg/m3
16882 kPa	952.8 kg/m3
16904 kPa	953 kg/m3
16933 kPa	952.8 kg/m3
16958 kPa	952.8 kg/m3
16983 kPa	952.9 kg/m3
17013 kPa	952.9 kg/m3
17038 kPa	952.9 kg/m3
17064 kPa	953.1 kg/m3
17089 kPa	952.9 kg/m3
17120 kPa	952.9 kg/m3
17145 kPa	953 kg/m3
17176 kPa	952.9 kg/m3
17202 kPa	952.9 kg/m3
17228 kPa	952.9 kg/m3
17254 kPa	953.1 kg/m3
17285 kPa	953 kg/m3
17312 kPa	953.1 kg/m3
17340 kPa	953 kg/m3
17368 kPa	953 kg/m3
17394 kPa	953.2 kg/m3
17426 kPa	953.1 kg/m3
17453 kPa	953.1 kg/m3
17463 kPa	953.2 kg/m3
17480 kPa	953.2 kg/m3
17483 kPa	953.2 kg/m3
17507 kPa	953.3 kg/m3
17512 kPa	953.2 kg/m3
17528 kPa	953.2 kg/m3
17538 kPa	953.2 kg/m3
17548 kPa	953.1 kg/m3
17566 kPa	953.2 kg/m3
17572 kPa	953.3 kg/m3
17598 kPa	953.3 kg/m3
17625 kPa	953.3 kg/m3
17652 kPa	953.3 kg/m3
17686 kPa	953.1 kg/m3
17709 kPa	953.4 kg/m3
17742 kPa	953.3 kg/m3
17770 kPa	953.4 kg/m3
17798 kPa	953.4 kg/m3
17831 kPa	953.5 kg/m3
17859 kPa	953.5 kg/m3
17882 kPa	953.5 kg/m3
17887 kPa	953.4 kg/m3
17921 kPa	953.4 kg/m3
17949 kPa	953.5 kg/m3 and 953.6 kg/m3
17971 kPa	953.5 kg/m3
17978 kPa	953.5 kg/m3
17993 kPa	953.6 kg/m3
18012 kPa	953.5 kg/m3
18019 kPa	953.6 kg/m3
18040 kPa	953.4 kg/m3
18075 kPa	953.5 kg/m3
18104 kPa	953.5 kg/m3
18133 kPa	953.6 kg/m3
18161 kPa	953.6 kg/m3
18196 kPa	953.5 kg/m3
18200 kPa	953.7 kg/m3
18226 kPa	953.7 kg/m3
18227 kPa	953.7 kg/m3
18250 kPa	953.7 kg/m3
18255 kPa	953.7 kg/m3
18275 kPa	953.8 kg/m3
18290 kPa	953.7 kg/m3
18320 kPa	953.8 kg/m3
18350 kPa	953.7 kg/m3
18386 kPa	953.8 kg/m3

Reference: the NIST ThermoML archive (doi:10.1021/je060271a)
